PubChem BioAssay (NCI)
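These data come from cells grown in 96-well plates and exposed to compound for 48 hours at five concentrations. GI50 marks 50% less growth. TGI: concentration producing complete growth inhibition.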

What was measured:
Assay in all cases: NCI tumour cell line growth inhibition, 48 h; in the data active = GI50 below about 0.43 µM; inactive = the rest
SK-MEL-5 melanoma = tested on: SK-MEL-5 melanoma
SNB-75 CNS = tested on: SNB-75 CNS
SW-620 colon = tested on: SW-620 colon
RXF 393 renal = tested on: RXF 393 renal
HCC-2998 colon = tested on: HCC-2998 colon
A498 renal = tested on: A498 renal
TK-10 renal = tested on: TK-10 renal
OVCAR-8 ovarian = tested on: OVCAR-8 ovarian
M14 melanoma = tested on: M14 melanoma
EKVX NSCLC = tested on: EKVX NSCLC
PC-3 prostate = tested on: PC-3 prostate
ACHN renal = tested on: ACHN renal
OVCAR-3 ovarian = tested on: OVCAR-3 ovarian
UACC-257 melanoma = tested on: UACC-257 melanoma
K-562 leukemia = tested on: K-562 leukemia
UACC-62 melanoma = tested on: UACC-62 melanoma
HL-60(TB) leukemia = tested on: HL-60(TB) leukemia
HCT-116 colon = tested on: HCT-116 colon
NCI-H460 lung = tested on: NCI-H460 lung
786-0 renal = tested on: 786-0 renal
U251 CNS = tested on: U251 CNS
SF-268 CNS = tested on: SF-268 CNS
DU-145 prostate = tested on: DU-145 prostate
CAKI-1 renal = tested on: CAKI-1 renal
NCI-H226 lung = tested on: NCI-H226 lung
OVCAR-4 ovarian = tested on: OVCAR-4 ovarian
HOP-92 NSCLC = tested on: HOP-92 NSCLC
SR leukemia = tested on: SR leukemia
LOX IMVI melanoma = tested on: LOX IMVI melanoma
T-47D breast = tested on: T-47D breast
COLO 205 colon = tested on: COLO 205 colon
SNB-19 CNS = tested on: SNB-19 CNS
HS 578T breast = tested on: HS 578T breast
KM12 colon = tested on: KM12 colon
NCI/ADR-RES ovarian = tested on: NCI/ADR-RES ovarian
CCRF-CEM leukemia = tested on: CCRF-CEM leukemia
MDA-MB-231 breast = tested on: MDA-MB-231 breast
MOLT-4 leukemia = tested on: MOLT-4 leukemia
A549 NSCLC = tested on: A549 NSCLC
SK-MEL-28 melanoma = tested on: SK-MEL-28 melanoma
SK-OV-3 ovarian = tested on: SK-OV-3 ovarian
NCI-H23 lung = tested on: NCI-H23 lung
SF-295 CNS = tested on: SF-295 CNS
HOP-62 NSCLC = tested on: HOP-62 NSCLC
BT-549 breast = tested on: BT-549 breast
SF-539 CNS = tested on: SF-539 CNS
RPMI-8226 leukemia = tested on: RPMI-8226 leukemia
HCT-15 colon = tested on: HCT-15 colon
OVCAR-5 ovarian = tested on: OVCAR-5 ovarian
MCF7 breast = tested on: MCF7 breast
SN12C renal = tested on: SN12C renal
SK-MEL-2 melanoma = tested on: SK-MEL-2 melanoma
NCI-H522 lung = tested on: NCI-H522 lung
IGROV1 ovarian = tested on: IGROV1 ovarian
MDA-MB-435 = tested on: MDA-MB-435
HT29 colon = tested on: HT29 colon
MALME-3M melanoma = tested on: MALME-3M melanoma
UO-31 renal = tested on: UO-31 renal

CCO/C=N/C1=C(C#N)C(c2ccc(OC)cc2)c2sc3c(C)cccc3c2O1 (stereo unspecified)
active: GI50 (SNB-75 CNS) 0.203 µM | GI50 (RXF 393 renal) 0.233 µM | GI50 (A498 renal) 0.291 µM | GI50 (M14 melanoma) 0.421 µM | GI50 (OVCAR-3 ovarian) 0.394 µM | GI50 (K-562 leukemia) 0.333 µM | GI50 (HL-60(TB) leukemia) 0.29 µM | GI50 (HCT-116 colon) 0.402 µM | GI50 (NCI-H460 lung) 0.407 µM | GI50 (CAKI-1 renal) 0.321 µM | GI50 (SR leukemia) 0.376 µM | GI50 (HS 578T breast) 0.35 µM | GI50 (SF-295 CNS) 0.362 µM | GI50 (SF-539 CNS) 0.316 µM | GI50 (RPMI-8226 leukemia) 0.417 µM | GI50 (MCF7 breast) 0.347 µM | GI50 (NCI-H522 lung) 0.426 µM | GI50 (MDA-MB-435) 0.243 µM
1.73 µM: TGI (HL-60(TB) leukemia)
6.69 µM: TGI (COLO 205 colon)
> 55.2 µM: TGI (HOP-92 NSCLC)
> 47.8 µM: TGI (HS 578T breast)
7.84 µM: TGI (SR leukemia)
0.774 µM: TGI (SNB-75 CNS)
> 60.3 µM: TGI (HOP-62 NSCLC)
> 100 µM: TGI (SW-620 colon) | TGI (TK-10 renal) | TGI (OVCAR-8 ovarian) | TGI (EKVX NSCLC) | TGI (PC-3 prostate) | TGI (ACHN renal) | TGI (OVCAR-3 ovarian) | TGI (UACC-257 melanoma) | TGI (K-562 leukemia) | TGI (UACC-62 melanoma) | TGI (NCI-H460 lung) | TGI (SF-268 CNS) | TGI (DU-145 prostate) | TGI (CAKI-1 renal) | TGI (OVCAR-4 ovarian) | TGI (T-47D breast) | TGI (SNB-19 CNS) | TGI (KM12 colon) | TGI (NCI/ADR-RES ovarian) | TGI (CCRF-CEM leukemia) | TGI (A549 NSCLC) | TGI (SK-MEL-28 melanoma) | TGI (SK-OV-3 ovarian) | TGI (NCI-H23 lung) | TGI (OVCAR-5 ovarian) | TGI (SK-MEL-2 melanoma) | TGI (IGROV1 ovarian) | TGI (MALME-3M melanoma) | TGI (UO-31 renal)
> 46.5 µM: TGI (SK-MEL-5 melanoma)
> 24.3 µM: TGI (MOLT-4 leukemia)
0.677 µM: TGI (MDA-MB-435)
> 38.1 µM: TGI (HCT-15 colon)
> 58.5 µM: TGI (BT-549 breast)
> 52.3 µM: TGI (SN12C renal)
> 37.8 µM: TGI (SF-295 CNS)
35.5 µM: TGI (HT29 colon)
1.1 µM: TGI (A498 renal)
> 40.3 µM: TGI (LOX IMVI melanoma)
1.91 µM: TGI (SF-539 CNS)
> 30.7 µM: TGI (NCI-H226 lung)
inactive: GI50 (SK-MEL-5 melanoma) 0.5 µM | GI50 (SW-620 colon) 0.527 µM | GI50 (HCC-2998 colon) 1.07 µM | GI50 (TK-10 renal) 22.7 µM | GI50 (OVCAR-8 ovarian) 0.716 µM | GI50 (EKVX NSCLC) 0.932 µM | GI50 (PC-3 prostate) 0.494 µM | GI50 (ACHN renal) 0.699 µM | GI50 (UACC-257 melanoma) > 43.5 µM | GI50 (UACC-62 melanoma) 0.514 µM | GI50 (786-0 renal) 0.469 µM | GI50 (U251 CNS) 0.51 µM | GI50 (SF-268 CNS) 0.766 µM | GI50 (DU-145 prostate) 0.571 µM | GI50 (NCI-H226 lung) 0.457 µM | GI50 (OVCAR-4 ovarian) 1.48 µM | GI50 (HOP-92 NSCLC) 0.851 µM | GI50 (LOX IMVI melanoma) 0.665 µM | GI50 (T-47D breast) 0.561 µM | GI50 (COLO 205 colon) 0.818 µM | GI50 (SNB-19 CNS) 0.518 µM | GI50 (KM12 colon) 0.452 µM | GI50 (NCI/ADR-RES ovarian) 0.444 µM | GI50 (CCRF-CEM leukemia) 0.459 µM | GI50 (MDA-MB-231 breast) 1.57 µM | GI50 (MOLT-4 leukemia) 0.54 µM | GI50 (A549 NSCLC) 0.898 µM | GI50 (SK-MEL-28 melanoma) 3.42 µM | GI50 (SK-OV-3 ovarian) 0.794 µM | GI50 (NCI-H23 lung) 0.545 µM | GI50 (HOP-62 NSCLC) 0.552 µM | GI50 (BT-549 breast) 0.65 µM | GI50 (HCT-15 colon) 0.447 µM | GI50 (OVCAR-5 ovarian) 3.16 µM | GI50 (SN12C renal) 0.831 µM | GI50 (SK-MEL-2 melanoma) 1.14 µM | GI50 (IGROV1 ovarian) 0.515 µM | GI50 (HT29 colon) 1.14 µM | GI50 (MALME-3M melanoma) 0.603 µM | GI50 (UO-31 renal) 0.562 µM
7.78 µM: TGI (HCC-2998 colon)
> 45 µM: TGI (M14 melanoma) | TGI (MDA-MB-231 breast)
> 38.4 µM: TGI (HCT-116 colon)
> 81.2 µM: TGI (MCF7 breast)
> 62.4 µM: TGI (786-0 renal)
> 39.5 µM: TGI (U251 CNS)
10 µM: TGI (NCI-H522 lung)
0.707 µM: TGI (RXF 393 renal)
15.1 µM: TGI (RPMI-8226 leukemia)
